Assay [1] has as its system atypical Aeromonas salmonicida. Kind of assay: Culture and sensitivity test, zones of inhibition on T.S.A. culture media. In kind it is cell-based. The settings on record: 24 h at 24° C.; for zone of inhibition at 30 µg/disc: Aeromonas salmonicida, 24 h, read-out: Zones of inhibition (mm) after 24 h. How it is done:
Four TTO-based compositions of the present invention, namely Compositions A-D (See Example 7) were evaluated in their efficacy to inhibit and prevent growth of atypical Aeromonas salmonicida, the causative agent of ulcerative disease of carps on T.S.A. culture media. Every culture plate was inoculated with Gram-negative Aeromonas Bacteria obtained from ulcerated Goldfish. Plates were sterile cultures incubated for 24 h at a temperature of 24° C. Inhibition of the TTO-based compositions was compared simultaneously with 2 familiar anti-bacterial medications, namely (i) Tetracycline (30 μg per disc); and (ii), Norfloxacin (10 30 μg per disc). Comparison discs were supplemented in the lab with 20 to 30 μg of the TTO-based compositions each: 50% Composition D; 50% Composition C; and 66% Composition B (See Example 7).

Assay [2] deals with Red-clawed Crayfish (Cherax Quadricarinatus). In words: Growth rate of Red-clawed Crayfish. In kind it is in vivo. The settings on record: compared to the control group as base reference. As for the experimental part:
In a separate experiment the growth rate of Red-clawed Crayfish treated with the TTO formulation was tested in comparison to an untreated tank and to two other disinfecting agents: formaldehyde and sodium bromide (e.g., commercially available Bromex™).

The next assay has as its system viral diseases of fish. The settings on record: cited from earlier work.

The structures appear in SMILES notation. Where two headings read alike, the source gives them in different places.

Take `CCn1cc(C(=O)O)c(=O)c2cc(F)c(N3CCNCC3)cc21` [Norfloxacin]: the “Zones of inhibition (mm) after 24 h” value in assay [1] (10 30 μg per disc, listed as Nx.) is given as 20 mm. Moreover, the zone of inhibition at 30 µg/disc in assay [1] (10 30 μg per disc) amounted to 28 mm. In the case of `CN(C)[C@@H]1C(O)=C(C(N)=O)C(=O)[C@@]2(O)C(O)=C3C(=O)c4c(O)cccc4[C@@](C)(O)[C@H]3C[C@@H]12` [Tetracycline], in assay [1] (30 μg per disc), the “Zones of inhibition (mm) after 24 h” value is listed as 22 mm and the zone of inhibition at 30 µg/disc worked out at 18 mm.

Turning to `C=O` [formaldehyde], the growth rates entry in assay [2] is “about 0.08 % per day”.

On to `CN(C)c1ccc(C(=C2C=CC(=[N+](C)C)C=C2)c2ccccc2)cc1` [malachite green], for which the “effectiveness against viral diseases of fish” value in the assay with viral diseases of fish was “not effective”.

Source of the values: patent US9320771B2, “TTO-based wide spectrum therapeutics, disinfectants and anesthetics for use in aquaculture” (priority 2006, dated 2016).
